Data from US10683295B2, “Chiral N-acyl-5,6,7(8-substituted)-tetrahydro-[1,2,4]triazolo[4,3-A]pyrazines as selective NK-3 receptor antagonists, pharmaceutical composition, methods for use in NK-3 receptor mediated disorders and chiral synthesis thereof” (Ogeda SA, priority 2011, dated 2020).

Test system: luteinizing hormone (LH) plasma levels
Assay: Castrated male rat model, circulating luteinizing hormone (LH)
Assay type: in vivo
Details: single intravenous 10 mg/kg dose, castrated male Sprague-Dawley rats, 1 hour after dosing
Description: Castrated Male Rat Model to Assess the Effect of Compound of Invention on Circulating Levels of Luteinizing Hormone (LH).
Thus, a castrated rat model is used to provide a broad index for measurement of LH inhibition as a marker of test compound inhibition of the GnRH signaling pathway.
Castrated adult male Sprague-Dawley (SD) rats (150-175 g) were purchased from Janvier (St Berthevin, France). […] The animals were allowed 2 weeks of postoperative recovery prior to study. Animals were handled on a daily basis. Standard diet and tap water were provided ad libitum. […] On the study day, animals were acclimated to the procedure room for a period of one hour prior to the initiation of the experiment.
Compounds of the invention were formulated as apyrogen water with 90 g/L (2-Hydroxypropyl)-β-CycloDextrin.
After basal sampling (TO) a single dose of compounds of the invention or vehicle was administrated intravenously to rats. Blood was then collected at 60 min post dosing. Blood samples were obtained via tail vein bleed, drawn into EDTA-containing tubes and centrifuged immediately. […] Serum LH levels were determined using radioimmunoassay kit from RIAZEN—Rat LH, Zentech (Liege, Belgium). Baseline was defined as the initial basal blood sample.

Row | SMILES | circulating LH levels
1 | Cc1nc(-c2nnc3n2CCN(C(=O)c2ccc(-c4cccs4)cc2)[C@@H]3C)cs1 [Compound 1, (R)-(8-methyl-3-(2-methylthiazol-4-yl)-5,6-dihydro-[1,2,4]triazolo[4,3-a]pyrazin-7(8H)-yl)(4-(thiophen-2-yl)phenyl) methanone] | significantly suppressed
2 | Cc1csc(-c2nnc3n2CCN(C(=O)c2ccc(-c4cccs4)cc2)[C@@H]3C)n1 [Compound 19, (R)-(8-methyl-3-(4-methylthiazol-2-yl)-5,6-dihydro-[1,2,4]triazolo[4,3-a]pyrazin-7(8H)-yl)(4-(thiophen-2-yl)phenyl)methanone] | significantly suppressed
